In ChEMBL document CHEMBL1201862, “PubChem BioAssay data set” (2004):
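A five-concentration, 48-hour dose response in 96-well plates underlies each endpoint, interpolated linearly between surrounding concentrations. GI50 marks 50% less growth.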 Active and inactive are the calls of the source. Cut-off read from the data, not from the text of the source: active = GI50 up to about 1.1 µM and inactive = higher.

Tests used:
Assay in all cases: NCI-60 cell line screen, 48 h
SF-268 = test system: SF-268
KM12 = test system: KM12
OVCAR-4 = test system: OVCAR-4
Malme-3M = test system: Malme-3M
HOP-62 = test system: HOP-62
SK-MEL-2 = test system: SK-MEL-2
SNB-19 = test system: SNB-19
NCI-H460 = test system: NCI-H460
ACHN = test system: ACHN
U-251 = test system: U-251
SF-295 = test system: SF-295
RPMI-8226 = test system: RPMI-8226
SN12C = test system: SN12C
HT-29 = test system: HT-29
M14 = test system: M14
UACC-257 = test system: UACC-257
SW-620 = test system: SW-620
RXF 393 = test system: RXF 393

Compound | GI50 (SF-268) | GI50 (KM12) | GI50 (OVCAR-4) | GI50 (Malme-3M) | GI50 (HOP-62) | GI50 (SK-MEL-2) | GI50 (SNB-19) | GI50 (NCI-H460) | GI50 (ACHN) | GI50 (U-251) | GI50 (SF-295) | GI50 (RPMI-8226) | GI50 (SN12C) | GI50 (HT-29) | GI50 (M14) | GI50 (UACC-257) | GI50 (SW-620) | GI50 (RXF 393)
CC(=O)c1c(C)[n+]([O-])c2cc(C)c(C)cc2[n+]1[O-] | > 100 µM (inactive) | > 100 µM (inactive) | > 100 µM (inactive) | > 100 µM (inactive) | > 100 µM (inactive) | > 100 µM (inactive) | > 100 µM (inactive) | > 100 µM (inactive) | > 100 µM (inactive) | > 100 µM (inactive) | > 100 µM (inactive) | > 100 µM (inactive) | > 100 µM (inactive) | 65.8 µM (inactive) | > 100 µM (inactive) | > 100 µM (inactive) | > 100 µM (inactive) | –
COc1ccc(OC)c(CCc2cc(OC)c(OC)cc2C)c1 | 42 µM (inactive) | 0.63 µM (active) | 8.2 µM (inactive) | 4.2 µM (inactive) | 49.1 µM (inactive) | 6.68 µM (inactive) | 92.7 µM (inactive) | 34.2 µM (inactive) | > 100 µM (inactive) | 43.4 µM (inactive) | 6.89 µM (inactive) | 14.4 µM (inactive) | 81.3 µM (inactive) | 28.4 µM (inactive) | 4.26 µM (inactive) | 26.7 µM (inactive) | 5.6 µM (inactive) | –
Nc1nc2c(ncn2CCOC(c2ccccc2)P(=O)(O)O)c(=O)[nH]1 (configuration not stated) | > 100 µM (inactive) | > 100 µM (inactive) | – | > 100 µM (inactive) | – | > 100 µM (inactive) | > 100 µM (inactive) | > 100 µM (inactive) | > 100 µM (inactive) | 1.09 µM (active) | > 100 µM (inactive) | – | > 100 µM (inactive) | > 100 µM (inactive) | – | > 100 µM (inactive) | > 100 µM (inactive) | > 100 µM (inactive)
COC(=O)C(=O)C(/C(=N/N)C(=O)Nc1ccccc1C(N)=O)c1nc2ccc([N+](=O)[O-])cc2nc1O (configuration not stated) | > 100 µM (inactive) | > 100 µM (inactive) | > 100 µM (inactive) | > 100 µM (inactive) | > 100 µM (inactive) | > 100 µM (inactive) | > 100 µM (inactive) | > 100 µM (inactive) | > 100 µM (inactive) | > 100 µM (inactive) | > 100 µM (inactive) | > 100 µM (inactive) | > 100 µM (inactive) | > 100 µM (inactive) | > 100 µM (inactive) | > 100 µM (inactive) | > 100 µM (inactive) | –
COc1ccc(C2C3=C(CCCC3=O)N(c3ccccc3)C3=C2C(=O)CCC3)cc1 | 79.4 µM (inactive) | > 100 µM (inactive) | 61.5 µM (inactive) | – | – | – | 58.9 µM (inactive) | > 100 µM (inactive) | > 100 µM (inactive) | 75.7 µM (inactive) | – | > 100 µM (inactive) | > 100 µM (inactive) | > 100 µM (inactive) | > 100 µM (inactive) | – | > 100 µM (inactive) | 19.5 µM (inactive)
O=C1OCc2nc3c(c(-c4ccccc4C(F)(F)F)c21)C(=O)OC3 | > 100 µM (inactive) | > 100 µM (inactive) | – | > 100 µM (inactive) | > 100 µM (inactive) | > 100 µM (inactive) | > 100 µM (inactive) | > 100 µM (inactive) | > 100 µM (inactive) | > 100 µM (inactive) | > 100 µM (inactive) | > 100 µM (inactive) | > 100 µM (inactive) | – | > 100 µM (inactive) | > 100 µM (inactive) | > 100 µM (inactive) | > 100 µM (inactive)
S=c1[nH]c(=S)c2nnn(-c3ccccc3)c2[nH]1 | > 100 µM (inactive) | > 100 µM (inactive) | – | > 100 µM (inactive) | > 100 µM (inactive) | > 100 µM (inactive) | > 100 µM (inactive) | > 100 µM (inactive) | > 100 µM (inactive) | > 100 µM (inactive) | – | > 100 µM (inactive) | > 100 µM (inactive) | > 100 µM (inactive) | > 100 µM (inactive) | > 100 µM (inactive) | > 100 µM (inactive) | > 100 µM (inactive)
COC(=O)c1nc(-c2nc(CCNC(=O)OC(C)(C)C)sc2Cl)sc1Cl | 74.6 µM (inactive) | 55.3 µM (inactive) | – | 66.8 µM (inactive) | 32.6 µM (inactive) | – | > 100 µM (inactive) | > 100 µM (inactive) | 83.2 µM (inactive) | > 100 µM (inactive) | > 100 µM (inactive) | 41.1 µM (inactive) | > 10 µM (inactive) | > 100 µM (inactive) | 32.1 µM (inactive) | > 100 µM (inactive) | > 100 µM (inactive) | > 100 µM (inactive)
NC(=O)NNC(=O)CCn1[nH]c(=O)c(Cl)c(Cl)c1=O | > 100 µM (inactive) | – | > 100 µM (inactive) | > 100 µM (inactive) | > 100 µM (inactive) | > 100 µM (inactive) | > 100 µM (inactive) | > 100 µM (inactive) | > 100 µM (inactive) | > 100 µM (inactive) | > 100 µM (inactive) | – | > 100 µM (inactive) | > 100 µM (inactive) | > 100 µM (inactive) | > 100 µM (inactive) | > 100 µM (inactive) | > 100 µM (inactive)
COc1ccc(C2=Nc3ccccc3SC(C)C2)cc1 (configuration not stated) | > 100 µM (inactive) | 32.2 µM (inactive) | > 100 µM (inactive) | > 100 µM (inactive) | > 100 µM (inactive) | > 100 µM (inactive) | > 100 µM (inactive) | > 100 µM (inactive) | > 100 µM (inactive) | 92.7 µM (inactive) | > 100 µM (inactive) | 17.3 µM (inactive) | > 100 µM (inactive) | 62.1 µM (inactive) | > 100 µM (inactive) | > 100 µM (inactive) | > 100 µM (inactive) | > 100 µM (inactive)
O=c1[nH]c2nc3ccccc3c(=O)n2nc1Cc1ccccc1 | > 100 µM (inactive) | > 100 µM (inactive) | 28.3 µM (inactive) | > 100 µM (inactive) | 16.3 µM (inactive) | > 100 µM (inactive) | > 100 µM (inactive) | > 100 µM (inactive) | > 100 µM (inactive) | > 100 µM (inactive) | > 100 µM (inactive) | > 100 µM (inactive) | > 100 µM (inactive) | > 100 µM (inactive) | > 100 µM (inactive) | > 100 µM (inactive) | > 100 µM (inactive) | –
N#Cc1cccc(C2SCc3nc4ccccc4n32)c1 (configuration not stated) | > 100 µM (inactive) | > 100 µM (inactive) | 86.7 µM (inactive) | > 100 µM (inactive) | > 100 µM (inactive) | > 100 µM (inactive) | > 100 µM (inactive) | > 100 µM (inactive) | 74 µM (inactive) | > 100 µM (inactive) | > 100 µM (inactive) | – | 75.9 µM (inactive) | > 100 µM (inactive) | – | 80 µM (inactive) | > 100 µM (inactive) | 80.2 µM (inactive)
CCOc1ccccc1NC(=O)CC1C(=O)Nc2ccccc2[S+]1[O-] (configuration not stated) | > 100 µM (inactive) | – | 32.4 µM (inactive) | > 100 µM (inactive) | – | > 100 µM (inactive) | > 100 µM (inactive) | 80 µM (inactive) | 66.2 µM (inactive) | 67.9 µM (inactive) | > 100 µM (inactive) | 11.4 µM (inactive) | > 100 µM (inactive) | > 100 µM (inactive) | 77.1 µM (inactive) | > 100 µM (inactive) | > 100 µM (inactive) | 50 µM (inactive)
CCCCNC1CCCCC[C@H]1O (some centres not stated) | > 100 µM (inactive) | > 100 µM (inactive) | > 100 µM (inactive) | – | > 100 µM (inactive) | > 100 µM (inactive) | > 100 µM (inactive) | > 100 µM (inactive) | > 100 µM (inactive) | > 100 µM (inactive) | > 100 µM (inactive) | > 100 µM (inactive) | > 100 µM (inactive) | > 100 µM (inactive) | > 100 µM (inactive) | > 100 µM (inactive) | > 100 µM (inactive) | > 100 µM (inactive)
C/C(=C\C(C)COCc1ccccc1)[C@H](COCc1ccccc1)OCc1ccccc1 (some centres not stated) | 76.2 µM (inactive) | > 100 µM (inactive) | 63.2 µM (inactive) | – | > 100 µM (inactive) | > 100 µM (inactive) | > 100 µM (inactive) | > 100 µM (inactive) | > 100 µM (inactive) | > 100 µM (inactive) | > 100 µM (inactive) | 50.1 µM (inactive) | > 100 µM (inactive) | > 100 µM (inactive) | > 100 µM (inactive) | – | > 100 µM (inactive) | 26.9 µM (inactive)
CCC1C(=O)OCc2c1cc1n(c2=O)Cc2ccccc2-1 (configuration not stated) | > 100 µM (inactive) | > 100 µM (inactive) | > 100 µM (inactive) | > 100 µM (inactive) | > 100 µM (inactive) | > 100 µM (inactive) | > 100 µM (inactive) | > 100 µM (inactive) | > 100 µM (inactive) | – | > 100 µM (inactive) | > 100 µM (inactive) | > 100 µM (inactive) | > 100 µM (inactive) | > 100 µM (inactive) | > 100 µM (inactive) | > 100 µM (inactive) | > 100 µM (inactive)
CCCCCCCCCCCC[N+]12CC[N+](C)(CC1)CC2 | 18.7 µM (inactive) | 7.31 µM (inactive) | 44.8 µM (inactive) | 46.9 µM (inactive) | 29.2 µM (inactive) | 77.8 µM (inactive) | 14 µM (inactive) | 6.38 µM (inactive) | 55.1 µM (inactive) | 15.6 µM (inactive) | 22.3 µM (inactive) | 15.8 µM (inactive) | 18.3 µM (inactive) | 16.4 µM (inactive) | 29.6 µM (inactive) | > 100 µM (inactive) | 44.3 µM (inactive) | 1.31 µM (inactive)
